Assays:
SB28 glioma [1] = assay: Survival in syngeneic orthotopic SB28 glioma mouse model; format: in vivo, C57BL/6 mice
SB28 glioma [2] = assay: Survival in syngeneic orthotopic SB28 glioma model in T- and B-cell deficient RAG1 knockout mice; format: in vivo, C57BL/6 RAG1 knockout mice
GL261 glioma = assay: Survival in syngeneic orthotopic highly invasive GL261 glioma mouse model; format: in vivo, C57BL/6 mice
[3] = cited from earlier work
[4] = twenty-nine patients, doses from 0.01 to 0.3 mg/kg; cited from earlier work
[5] = Log-rank (Mantel-Cox) analysis, n=8-10 mice per group

Q: Which results are given for N#CCCNc1nonc1-c1nc2ccccc2n1CC(=O)c1ccc(NC(=O)[C@@H](N)CCCCN)cc1 [BAL101553, (S)-2,6-Diamino-hexanoic acid [4-(2-{2-[4-(2-cyano-ethylamino)-furazan-3-yl]-benzoimidazol-1-yl}-acetyl)-phenyl]-amide]?
A: survival of SB28 glioma bearing mice (in words, FIG. 1) (SB28 glioma [1]; [5]): statistically significant but smaller survival benefit than the combined regimen; median survival increase versus control (SB28 glioma [1]; SB28 intra-cranial, C57BL/6 mice, BAL101553 25 mg/kg orally daily day 5-9, 12-16, 19-23, 26-30, anti-CD40 antibody 100 μg per animal IP days 7, 12, 16): 55%; median survival increase, less than in the combination regimen (SB28 glioma [1]; single agent versus combination, SB28, C57BL/6 mice): 26%; survival of SB28 glioma bearing immunodeficient (RAG1 KO) mice (in words, FIG. 2) (SB28 glioma [2]; [5]): statistically significant, but smaller survival benefit than the combined regimen; median survival increase versus control (SB28 glioma [2]; SB28 intra-cranial, RAG1 KO mice, same treatment schedule as Example 1): 33%; median survival increase, less than measured in the combination regimen (SB28 glioma [2]; single agent versus combination, SB28, RAG1 KO mice): 23%; median survival increase versus control (GL261 glioma; GL261 intra-cranial, C57BL/6 mice, same treatment schedule as Examples 1 and 2): 18%; survival of GL261 glioma bearing mice (in words, FIG. 3) (GL261 glioma; Log-rank (Mantel-Cox) analysis, n=10 mice per group): do not show any significant prolongation of survival; median survival increase, less than measured in the combination regimen (GL261 glioma; single agent versus combination, GL261, C57BL/6 mice): 25%; water solubility (in words) [3]: highly water-soluble

Q: Which “maximum tolerated dose (MTD)” value [4] does the source give for “CP-870,893: fully human IgG2 agonistic CD40 antibody developed by Pfizer” here?
A: 0.2 mg/kg

Reference: patent US20220370418A1, “PHARMACEUTICAL COMBINATIONS COMPRISING A FURAZANOBENZIMIDAZOLES AND A CD40 AGONIST FOR USE IN THE TREATMENT OF NEOPLASTIC DISEASES” (Basilea Pharmaceutica International AG, priority 2019, published 2022)
